The record followed here is PMC6792352, “Limited Chemical Structural Diversity Found to Modulate Thyroid Hormone Receptor in the Tox21 Chemical Library” (Environmental Health Perspectives, 2019).

Molecules are shown by their SMILES. Where two headings read alike, the source gives them in different places. Bounds are passed on as bounds.

Data set [1] in a line: in vitro. The settings on record: rat, gh3-tre-luc cells, AC50 (uM) modified / 1000.
The subject of data set [2] is thyroid hormone receptor (endogenous TRα and TRβ). The experiment in a line: GH3-TRE-Ag primary qHTS, luciferase reporter, agonist mode (TOX21_TR_LUC_GH3_Agonist, aeid 803). It counts as cell-based, rat. To be noted: for GH3-TRE-Ag AC50 hitc: hit call from tcpl; for AC50: read-out: GH3-TRE-Ag AC50.
Data set [3] shares this test system. The data set can be described thus: GH3-TRE-Ag-Followup confirmation (TOX21_TR_LUC_GH3_Agonist_Followup, aeid 2226). To be noted: for GH3-TRE-Ag-Followup hitc: hit call from tcpl; for AC50: read-out: GH3-TRE-Ag-Followup AC50. In kind it is cell-based, rat.
For data set [4], the target named is T1, human TRβ ligand-binding domain (Homo sapiens, UniProt P10828).
T1 sequence (P10828 217-461 limits assumed): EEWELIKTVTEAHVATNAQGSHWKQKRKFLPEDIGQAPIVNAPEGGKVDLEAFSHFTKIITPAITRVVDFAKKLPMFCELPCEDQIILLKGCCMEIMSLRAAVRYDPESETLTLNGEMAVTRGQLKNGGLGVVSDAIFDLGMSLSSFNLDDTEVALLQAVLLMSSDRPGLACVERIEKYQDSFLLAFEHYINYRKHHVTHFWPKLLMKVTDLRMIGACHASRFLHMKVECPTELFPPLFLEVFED
The experiment in a line: TRb-bla agonist mammalian one-hybrid beta-lactamase assay (TOX21_TRB_BLA_Agonist_Followup_ratio, aeid 2236). The settings on record: for TRb-bla hitc: hit call from tcpl. In kind it is cell-based. Set-up: host or cells: GeneBLAzer UAS-bla HEK 293T.

In data set [5] the target is T1, human TRβ ligand-binding domain. The experiment in a line: TRb-coa LanthaScreen TR-FRET coactivator (SRC-2 peptide) recruitment, agonist (TOX21_TRB_COA_Agonist_Followup_ratio, aeid 2244). It counts as biochemical. To be noted: for TRb-coa hitc: hit call from tcpl; for Emax: read-out: EMax (% of Control) trb-coa-agonist-followup-1. Set-up: host or cells: GeneBLAzer UAS-bla HEK 293T.

Data set [6] relates to GH3-TRE-Luc cell line. To be noted: read-out: AC50 (uM) modified / 1000; Tox21_110001=Tox21_303049; viability, 1 nM T3 present, 24 h.
The target in data set [7] is T2, human RXRα (Homo sapiens, UniProt P19793).
T2 construct: host or cells: GeneBLAzer UAS-bla HEK 293T
T2 sequence (P19793 227-458 limits assumed): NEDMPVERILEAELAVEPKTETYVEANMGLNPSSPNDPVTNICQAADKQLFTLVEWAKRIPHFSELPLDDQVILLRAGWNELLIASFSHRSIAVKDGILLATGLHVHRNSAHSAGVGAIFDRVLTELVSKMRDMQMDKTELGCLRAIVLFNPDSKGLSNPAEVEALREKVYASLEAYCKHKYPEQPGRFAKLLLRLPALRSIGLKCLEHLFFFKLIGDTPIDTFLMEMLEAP
The data set can be described thus: RXRa-bla-Ag mammalian one-hybrid beta-lactamase assay (TOX21_TR_RXR_BLA_Agonist_Followup_ratio, aeid 2253). In kind it is cell-based. The settings on record: for tr-followup-rxr-bla-agonist-1 hitc: hit call from tcpl; for Emax: read-out: EMax (% of Control) tr-followup-rxr-bla-agonist-1.

Data set [8] addresses luciferase (Photinus pyralis, UniProt P08659). The data set can be described thus: Luciferase inhibition.
Data set [9] deals with thyroid hormone receptor (TR). The data set can be described thus: Classification of TR actives across characterization assays (TR-Ag / RXR-Ag; TR model binary). Details: key to Categorization Code: FP, false positive. The settings on record: for Categorization Code: TR agonist characterization. Summed up:
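Pharmaceuticals excluded; actives called from GH3-TRE qHTS (agonist, antagonist, viability) on 8,305 chemicals. Confirmation of 84 selected chemicals used GH3-TRE-Ag, mammalian one-hybrid TRβ and RXRα UAS-bla HEK 293T specificity screens, parental HEK293T viability, and two TR:coactivator recruitment assays.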

For data set [10], the system named is GH3-TRE-Luc cell line. The experiment in a line: GH3-TRE-Via cell viability, CellTiter-Fluor (TOX21_TR_LUC_GH3_Antagonist_viability, aeid 805).
In data set [11] the target is T3, TRα ligand-binding domain (Homo sapiens, UniProt P10827).
T3 construct: the receptor LBDs expressed as glutathione S-transferase (GST) fusion proteins; purchased
The data set can be described thus: TRa-coa LanthaScreen TR-FRET coactivator (SRC-2 peptide) recruitment, agonist (TOX21_TRA_COA_Agonist_Followup_ratio, aeid 2230). The settings on record: for TRa-coa hitc: hit call from tcpl; for Emax: read-out: EMax (% of Control) tra-coa-agonist-followup-1. It counts as biochemical.

In data set [12] the test system is GH3-TRE-Luc cell line.
For data set [13], the system named is Tox21 cell viability assays (different cell types). The experiment in a line: Global cytotoxicity: eighteen Tox21 cell viability assays. It counts as cell-based.
Assay in data set [14]: as above
It counts as cell-based.

T3 sequence (P10827 163-410 isoform P10827-2 limits assumed, other chains not shown): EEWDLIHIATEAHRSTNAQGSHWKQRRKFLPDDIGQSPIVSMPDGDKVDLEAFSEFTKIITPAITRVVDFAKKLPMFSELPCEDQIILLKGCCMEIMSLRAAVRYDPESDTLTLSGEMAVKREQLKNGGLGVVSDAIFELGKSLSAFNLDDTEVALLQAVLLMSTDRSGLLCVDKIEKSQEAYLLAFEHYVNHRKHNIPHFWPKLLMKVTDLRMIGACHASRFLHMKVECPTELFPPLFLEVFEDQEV
luciferase, sequence (P08659 whole entry, species assumed): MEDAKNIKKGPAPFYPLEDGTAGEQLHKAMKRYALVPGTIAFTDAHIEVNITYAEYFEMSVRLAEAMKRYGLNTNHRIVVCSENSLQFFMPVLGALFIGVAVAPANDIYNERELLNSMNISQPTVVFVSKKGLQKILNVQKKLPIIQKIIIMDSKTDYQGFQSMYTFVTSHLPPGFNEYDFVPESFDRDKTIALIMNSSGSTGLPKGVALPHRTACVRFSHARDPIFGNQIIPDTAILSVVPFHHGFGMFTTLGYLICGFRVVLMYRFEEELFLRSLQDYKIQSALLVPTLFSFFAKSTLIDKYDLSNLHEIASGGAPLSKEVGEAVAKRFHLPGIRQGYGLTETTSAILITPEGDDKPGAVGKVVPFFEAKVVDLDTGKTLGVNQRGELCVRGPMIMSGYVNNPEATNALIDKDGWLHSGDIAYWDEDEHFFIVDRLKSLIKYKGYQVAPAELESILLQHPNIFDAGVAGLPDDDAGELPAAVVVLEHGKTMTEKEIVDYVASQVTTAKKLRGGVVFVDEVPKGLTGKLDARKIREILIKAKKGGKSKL

`CN(C)c1ccc(N=O)cc1` [N,N-dimethyl-4-nitrosoaniline]: in data set [1], the CC50 at 24 h was found to be 5.44 µM. Also, the “EMax (% of Control) gh3-tre-agonist” value in data set [2] was 31.0 % of Control. The “GH3-TRE-Ag AC50 hitc” value in data set [2] was determined as 1. For the same compound, the AC50 is 12.3 µM in data set [2]; 9.01 µM in [3]; over 92 µM in [4] (agonist, read-out: TRb-bla AC50); over 92 µM in data set [5] (agonist, read-out: TRb-coa AC50); over 92 µM in data set [7]; 6.9 µM in data set [10] (Rattus norvegicus, read-out: TR_LUC_GH3_Antagonist_viability AC50 (uM)). Besides, the AC50 in [11] (agonist, read-out: TRa-coa AC50) was over 92 µM. The “EMax (% of Control) gh3-tre-agonist-followup-1_agonist” value in data set [3] was 47.7 % of Control. This compound gave a GH3-TRE-Ag-Followup hitc in [3] of 1. This compound also displayed a TRb-bla hitc in data set [4] (agonist) of 0. In addition, the Emax in data set [4] (read-out: EMax (% of Control) trb-bla-agonist-followup-1) was 8.4%; in [5] it was -0.165%; in data set [7], 1.8%; in data set [11] it was -0.217%. In data set [5] (agonist), this compound showed a TRb-coa hitc of 0. Also, the CC50 in [6] amounted to 8.37 µM. Moreover, in data set [7], the tr-followup-rxr-bla-agonist-1 hitc is recorded as 0. The “luciferase inhibition” value in [8] is listed as “luciferase inhibitor”. Further, in data set [9], the “Categorization Code” value is on record as “FP”. In addition, the TR_LUC_GH3_Antagonist_viability hitc in data set [10] (hit call from tcpl) is 1. For the same compound, the TRa-coa hitc in [11] (agonist) was found to be 0.

Compound `CSCC[C@H](NC(=O)[C@H](Cc1ccc(OS(=O)(=O)O)cc1)NC(=O)[C@@H](N)CC(=O)O)C(=O)NCC(=O)N[C@@H](Cc1c[nH]c2ccccc12)C(=O)N[C@@H](CCSC)C(=O)N[C@@H](CC(=O)O)C(=O)N[C@@H](Cc1ccccc1)C(N)=O` [Sincalide, reference compound] had an AC50 of over 92 µM. Further, in data set [2], the “EMax (% of Control) gh3-tre-agonist” value was 80.1 % of Control and the “GH3-TRE-Ag AC50 hitc” value came to 1. Moreover, the AC50 in [2] (primary qHTS, agonist mode, 24 h, top concentration 92 μM) is 12.4 µM. This compound had a TR_LUC_GH3_Antagonist_viability hitc in [12] of 0. Also, in data set [3], the “EMax (% of Control) gh3-tre-agonist-followup-1_agonist” value is given as 19.9 % of Control and the GH3-TRE-Ag-Followup hitc was determined as 0. Besides, the AC50 in data set [3] (confirmation, agonist mode) came to 8.59 µM. Further, the AC50 in [4] (HEK 293T one-hybrid, agonist mode, read-out: TRb-bla-Ag AC50) is over 92 µM. Besides, in data set [4] (agonist), the TRb-bla hitc is reported as 0. In data set [5] (cell-free coactivator recruitment, read-out: TRb-coa-Ag AC50), the AC50 is over 92 µM. In data set [5] (agonist), this compound had a TRb-coa hitc of 0. Moreover, in data set [5], the Emax is -0.125%. In [13], the “GLOBAL CYTOTOXICITY cytotox.median” value was over 92 and the “GLOBAL CYTOTOXICITY cytotox.number_Active” value is reported as 0. For the same compound, the AC50 in [14] is over 92 µM. Further, in data set [7] (HEK 293T one-hybrid, agonist mode, inactive set to 1,000, read-out: RXRa-bla-Ag AC50), the AC50 came out at 10.5 µM. In addition, in data set [7], the tr-followup-rxr-bla-agonist-1 hitc is 1 and the Emax turned out to be 36.1%. In addition, the “Categorization Code” value in [9] is “RXR-Ag”. In addition, the Classification result in data set [9] (TR-Ag = TR agonist, RXR-Ag = RXR agonist) was “RXR-Ag”. The AC50 in data set [11] (cell-free coactivator recruitment, read-out: TRa-coa-Ag AC50) is over 92 µM. This compound also yielded a TRa-coa hitc in data set [11] (agonist) of 0. In addition, in data set [11], the Emax is -0.4%.
